From patent US11992535B2, “Compounds and probes for imaging huntingtin protein” (CHDI Foundation, Inc., priority 2019, dated 2024) come the findings set out here.

Structures are written as SMILES. Where two headings read alike, the source gives them in different places.

The target of the experiment is aggregated MBP-HTT(1-89)Q46-His(6×) (Exonl-Q46) protein (Q46 protein aggregates) (Homo sapiens (Human), UniProt P42858, INS38QQQQQQQQQQQQQQQQQQQQQQQQQ). As to the kind of experiment: Q46 Radioligand Binding Assay. The settings on record: read-out: Q46_RBA EC50_. On the procedure: Q46 Radioligand Binding Assay
For radioligand binding assays (RBA) MBP-HTT(1-89)Q46-His(6×) (“Exonl-Q46”) protein was generated based on a previous publication (Scherzinger et al. Cell, Vol. 90, 549-558, Aug. 8, 1997). For experiments 30 μM MBP-Exonl-Q46 was incubated with 150 μg/mL thrombin in assay buffer (150 mM NaCl, 50 mM Tris pH 8.0) and 2 mM CaCl2 for 16 hours at 37° C. Aggregated Exonl-Q46 was pelleted by centrifugation for 5 minutes at 13,000 rpm in a bench top centrifuge and re-dissolved in the same volume of assay buffer. Test compounds were prepared by titration in DMSO at 11 concentrations from 63 μM to 2 nM. For the RBA, Q46 protein aggregates and test compounds were pre-incubated in assay buffer for 20 minutes at room temperature, in 100 μL/well in a 96-well plate (pp, round bottom). Then, ligand was added in 50 μL/well and incubated for 60 minutes at 37° C. Final assay concentrations were 1 μM to 30 μM test compound, 1 μM Exonl-Q46 protein (equivalent monomer concentration) and 0.3 nM ligand [^3H3-methyl]-5-((5-methoxypyridin-2-yl)methoxy)-2-(pyrazin-2-yl)benzo[d]oxazole. Samples were transferred onto GF/B filter plates and washed 2× with 200 μL PBS using a Filtermate Harvester. After drying filter plates for 1 hour at 55° C., the back of the plates were sealed with foil and 30 μL/well scintillation fluid (Packard MicroScint 40) added, incubated for 15 minutes in the dark and counted in a MicroBeta reader. For analysis, replicate data from independent assay plates were normalized towards 0% and 100% inhibition using control wells of vehicle (0% inhibition) and 1 μM unlabelled [^3H3-methyl]-5-((5-methoxypyridin-2-yl)methoxy)-2-(pyrazin-2-yl)benzo[d]oxazole (100% inhibition). IC50 values were determined with a sigmoidal inhibition model with four variables (top, bottom, slope, IC50) in a global fit using the normalized replicate data.

Where [1] appears, read: displacement of 0.3 nM [3H3-methyl]-5-((5-methoxypyridin-2-yl)methoxy)-2-(pyrazin-2-yl)benzo[d]oxazole from 1 μM Exonl-Q46 aggregates, method calls the values IC50.
The mark [2] stands for this setting: same radioligand displacement on Exonl-Q46 aggregates.

aggregated MBP-HTT(1-89)Q46-His(6×) (Exonl-Q46) protein (Q46 protein aggregates), sequence (P42858 other isoform, or with tags, fused parts or gaps, stated change not applied): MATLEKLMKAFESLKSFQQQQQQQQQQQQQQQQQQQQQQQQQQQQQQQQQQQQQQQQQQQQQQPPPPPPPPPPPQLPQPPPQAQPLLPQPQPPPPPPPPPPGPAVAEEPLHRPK

For the compound `COc1ccc(COc2cnc3c(c2)CN(C(=O)c2ccc(-n4ccnc4)nc2)CC3)nc1` [Example 24, 6-[6-(1H-Imidazol-1-yl)pyridine-3-carbonyl]-3-[(5-methoxypyridin-2-yl)methoxy]-5,6,7,8-tetrahydro-1,6-naphthyridine], the EC50 under setting [1] is 2.06 nM and the concentration for a half-maximal effect (EC50) under setting [2] was < 100 nM.

Consider `C=CCOc1ccc(C(=O)N2CCc3ncc(OCc4ccc(OC)cn4)cc3C2)cn1` [Example 24.1], for which the EC50 is, setting by setting: under setting [1], 3.01 nM; under setting [2], < 100 nM.

Turning to `COCCOc1ccc(C(=O)N2CCc3ncc(OCc4ccc(OC)cn4)cc3C2)cn1` [Example 24.2], under setting [2], the concentration giving a half-maximal response (EC50) is < 100 nM.

Consider `COc1ccc(COc2cnc3c(c2)CN(C(=O)c2ccc(OCCF)nc2)CC3)nc1` [Example 24.3], for which the EC50 runs as follows: under setting [1], 4.45 nM; under setting [2], < 100 nM.

For `COCCn1cc(C(=O)N2CCc3ncc(OCc4ccc(OC)cn4)cc3C2)ccc1=O` [Example 24.4], the 50% effective concentration (EC50) reads like this: under setting [1], 43 nM; under setting [2], < 100 nM.

Consider `COc1ccc(COc2ccc3c(c2)CN(C(=O)c2ccc(OC)nc2)CCO3)nc1` [Example 25, 7-[(5-Methoxypyridin-2-yl)methoxy]-4-(6-methoxypyridine-3-carbonyl)-2,3,4,5-tetrahydro-1,4-benzoxazepine], for which the concentration giving a half-maximal response (EC50) by setting is: under setting [1], 153 nM; under setting [2], 100 to 500 nM.

For the compound `COc1ccc(COc2ccc3c(n2)CN(C(=O)c2ccc(OC)nc2)CC3)nc1` [Example 26, 2-[(5-Methoxypyridin-2-yl)methoxy]-7-(6-methoxypyridine-3-carbonyl)-5,6,7,8-tetrahydro-1,7-naphthyridine], the EC50 under setting [1] was found to be 39.3 nM and the EC50 under setting [2] is < 100 nM.

`COc1ccc(Cn2c3c(ccc2=O)CCN(C(=O)c2ccc(OC)nc2)C3)nc1` [Example 26.1]: the EC50 under setting [2] is > 500 nM.

In the case of `COc1ccc(COc2cnc3c(c2)CN(c2ccc(OC)cn2)CC3)nc1` [Example 27, 6-(5-Methoxypyridin-2-yl)-3-[(5-methoxypyridin-2-yl)methoxy]-5,6,7,8-tetrahydro-1,6-naphthyridine], the concentration for a half-maximal effect (EC50) runs as follows: under setting [1], 3.19 nM; under setting [2], < 100 nM.

For the compound `COc1ccc(COc2ccc3c(c2)CN(c2ccc(=O)n(C)n2)CC3)nc1` [Example 27.1], the EC50 runs as follows: under setting [1], 13.4 nM; under setting [2], < 100 nM.

Consider `COc1ccc(COc2ccc3c(c2)CN(c2ccn(C)c(=O)c2)CC3)nc1` [Example 27.2], for which the half-maximal effective concentration (EC50) runs as follows: under setting [1], 260 nM; under setting [2], 100 to 500 nM.

For `COc1ccc(COc2ccc3c(c2)CN(C(=O)c2ccc(OC)nc2)CC3C)nc1` (centres unmarked) [Example 28], the 50% effective concentration (EC50) under setting [2] is < 100 nM.

As for `COc1ccc(COc2ccc3c(c2)CN(c2cnn(C)c2)CC3)nc1` [Example 29, 7-[(5-Methoxypyridin-2-yl)methoxy]-2-(1-methyl-1H-pyrazol-4-yl)-1,2,3,4-tetrahydroisoquinoline], the EC50 is 161 nM under setting [1] and 100 to 500 nM under setting [2].

On to `COc1ccc(COc2ccc3c(c2)CN(c2ccc(=O)n(C)c2)CC3)nc1` [Example 29.1], for which the EC50 reads like this: under setting [1], 86 nM; under setting [2], < 100 nM.

`COc1ccc(OCCn2cnc3c2CN(C(=O)c2ccc(OC)nc2)CC3)nc1` [Example 30, 2-Methoxy-5-(3-{2-[(5-methoxypyridin-2-yl)oxy]ethyl}-3H,4H,5H,6H,7H-imidazo[4,5-c]pyridine-5-carbonyl)pyridine]: the EC50 under setting [1] was 704 nM and the EC50 under setting [2] is > 500 nM.

Regarding `COc1ccc(COc2ccc3c(c2)CN(C(=O)c2ccc(OC)nc2)C(C)C3)nc1` (centres unmarked) [Example 31, 7-[(5-Methoxypyridin-2-yl)methoxy]-2-(6-methoxypyridine-3-carbonyl)-3-methyl-1,2,3,4-tetrahydroisoquinoline], the EC50 runs as follows: under setting [1], 108 nM; under setting [2], 100 to 500 nM.

With `CC(=O)N1CCc2ccc(OCc3ccc(O)cn3)cc2C1` [Example 32, 1-{7-[(5-Hydroxypyridin-2-yl)methoxy]-1,2,3,4-tetrahydroisoquinolin-2-yl}ethan-1-one], the EC50 was 191 nM under setting [1] and 100 to 500 nM under setting [2].

`COc1ccc(COc2ccc3c(c2)CN(C(=O)OCC(C)C)CC3)nc1` [Example 33, 2-Methylpropyl 7-[(5-methoxypyridin-2-yl)methoxy]-1,2,3,4-tetrahydroisoquinoline-2-carboxylate]: the concentration for a half-maximal effect (EC50) under setting [1] came out at 36.5 nM and the EC50 under setting [2] is < 100 nM.

On to `COc1ccc(COc2ccc3c(c2)CN(C(=O)c2ccc(OCCF)nc2)CC3)nc1` [Example 34, (6-(2-Fluoroethoxy)pyridin-3-yl)(7-((5-methoxypyridin-2-yl)methoxy)-3,4-dihydroisoquinolin-2(1H)-yl)methanone], for which the EC50 under setting [1] was 2.48 nM and the EC50 under setting [2] is < 100 nM.

As to `COc1ccc(COc2ccc3c(c2)CN(C(=O)c2ccc(=O)n(CCF)c2)CC3)nc1` [Example 34.1], the EC50 was 5.12 nM under setting [1] and < 100 nM under setting [2].

As for `C=CCOc1ccc(COc2ccc3c(c2)CN(C(=O)c2ccc(OC)nc2)CC3)nc1` [Example 35, (7-((5-(Allyloxy)pyridin-2-yl)methoxy)-3,4-dihydroisoquinolin-2(1H)-yl)(6-methoxypyridin-3-yl)methanone], the EC50 was 1.05 nM under setting [1] and < 100 nM under setting [2].

Regarding `COc1ccc(C(=O)N2CCc3ccc(OCc4ccc(O)cn4)cc3C2)cn1` [Example 35.1, (7-((5-Hydroxypyridin-2-yl)methoxy)-3,4-dihydroisoquinolin-2(1H)-yl)(6-methoxypyridin-3-yl)methanone], the 50% effective concentration (EC50) was 8.44 nM under setting [1] and < 100 nM under setting [2].

With `COc1ccc(COc2ccc3c(c2)CN(C(=O)c2ccc(OCF)nc2)CC3)nc1` [Example 36, (6-(Fluoromethoxy)pyridin-3-yl)(7-((5-methoxypyridin-2-yl)methoxy)-3,4-dihydroisoquinolin-2(1H)-yl)methanone], the 50% effective concentration (EC50) by setting is: under setting [1], 1.96 nM; under setting [2], < 100 nM.

Take `COc1ccc(C(=O)N2CCc3ccc(OCc4ccc(OCF)cn4)cc3C2)cn1` [Example 37, (7-((5-(Fluoromethoxy)pyridin-2-yl)methoxy)-3,4-dihydroisoquino-lin-2(1H)-yl)(6-methoxypyridin-3-yl)methanone]: the EC50 reads like this: under setting [1], 2.6 nM; under setting [2], < 100 nM.

Turning to `COc1ccc(C(=O)N2CCc3ccc(OCc4ccc(OCCF)cn4)cc3C2)cn1` [Example 38, (7-((5-(2-Fluoroethoxy)pyridin-2-yl)methoxy)-3,4-dihydroisoquino-lin-2(1H)-yl)(6-methoxypyridin-3-yl)methanone], the EC50 is 1.25 nM under setting [1] and < 100 nM under setting [2].

For `COc1ccc(COc2ccc3c(c2)CN(C(=O)c2ccc(=O)[nH]c2)CC3)nc1` [Example 39, 5-(7-((5-Methoxypyridin-2-yl)methoxy)-1,2,3,4-tetrahydroisoquinoline-2-carbonyl)pyridin-2(1H)-one], the 50% effective concentration (EC50) was 12 nM under setting [1] and < 100 nM under setting [2].

For `Cn1cc(C(=O)N2CCc3ccc(OCc4ccc(O)cn4)cc3C2)ccc1=O` [Example 40, 5-(7-((5-Hydroxypyridin-2-yl)methoxy)-1,2,3,4-tetrahydroisoquinoline-2-carbonyl)-1-methylpyridin-2(1H)-one], the EC50 reads like this: under setting [1], 333 nM; under setting [2], 100 to 500 nM.

For `COc1ccc(COc2ccc3c(c2)CN(C(=O)c2ccc(=O)n(C)c2)CC3)nc1` [Example 41, 5-(7-((5-Methoxypyridin-2-yl)methoxy)-1,2,3,4-tetrahydroisoquin-oline-2-carbonyl)-1-methylpyridin-2(1H)-one], the concentration giving a half-maximal response (EC50) was 23.5 nM under setting [1] and < 100 nM under setting [2].

For orientation: EC50 means the concentration that produces a half-maximal response.
